Values joined by “and” are separate entries in the source; they are usually repeats but may differ in a detail not shown here. Equal values may be shown once. Read-outs that look alike come from different tables or passages of the source.
Test: In vivo pharmacokinetic study in male ICR mice (compound alone)
Settings: for C0: read-out: C0
Procedure: The pharmacokinetics profile of the newly developed antiviral compound C5N17B was subsequently evaluated in male ICR mice that were free from specific pathogens, aiming to assess its potential for therapeutic application in vivo.
A total of six male ICR mice were randomly assigned to two groups. One group received the test drug intravenously at a dosage of 2 mg kg^−1, while the other group received oral administration at a dosage of 10 mg kg^−1. To prepare solutions of C5N17B, 2.39 mg compound was dissolved in a mixture of 0.119 mL DMSO, 0.238 mL polyoxyl 15 hydroxystearate (Solutol), and 2.027 mL normal saline. For the intravenous group, blood samples were collected from the sinus jugular into heparinized centrifugation tubes at various time points after dosing: 5, 15, 30 min, 1, 2, 4, 6, 8, and 24 h. As for the oral administration group, blood samples were collected at similar time points (0.05 mL of blood each time). The collected blood samples were then centrifuged at a speed of 4000 rpm for 10 min to separate plasma, which was subsequently stored at −20 °C until further LC‐MS analysis to determine the concentration of C5N17B. Briefly, the analysis involved adding 20 µL of plasma, sample calibration standard, quality control, and dilution quality control, and blank samples into respective wells on a 96‐well plate. Then each sample was quenched with 200 µL of internal standard (the blank sample was quenched with 200 µL of ACN: MeOH = 1:1), followed by vortex‐mixed for 5 min, and centrifuged for 0.5 min at 4000 rpm, 4 °C. Next, a 100 µL portion of supernatant was transferred to another clean 96‐well plate and diluted with 100 µL of water, vortex‐mixed for 5 min and centrifuged for 10 min at 4000 rpm, 4 °C, then the sample was injected for LC‐MS/MS analysis. All samples were quantified using an LC‐MS/MS‐AR Triple Quad 5500+ (SCIEX, USA) and the ExionLC liquid phase system. The mobile phase was 0.1% formic acid‐water/ACN with gradient elute at a flow rate of 0.8 mL mi^−1n (total time 2.20 min), and the detection wavelength was 225 nm. All blood samples were centrifuged using an Eppendorf 5424R centrifuge and quantified using an LC‐MS/MS‐AR Triple Quad 5500+ (SCIEX, USA). The pharmacokinetic parameters were calculated by WinNolin 8.2 software.

[1] = PO 10 mg/kg, individual mice 4-6, 10 mg/kg
[2] = i.v. 2 mg kg^−1, male ICR mice, n = 3

Cc1cncc(C(=O)N2C[C@H]3CC[C@@H](C2)N3[C@H](c2cccc(F)c2)c2cn(CCc3ccsc3)nn2)c1 [Compound C5N17B]
MRTINF_pred [1]: 295 min and 184.93 min and 381.5 min | MRTlast [1]: 113.8 min and 110 min | Tlast [1]: 4 h and 6 h | Vz_F_obs [1]: 837.29 L/kg and 630.24 L/kg and 684.762 L/kg | Vz_F_pred [1]: 906.828 L/kg and 630.882 L/kg and 737.02 L/kg | F, Mean (PO 10 mg/kg, mean of mice 4#-6#): 13.0% | C0, i.v. [2]: 514 ± 164.7 ng/mL | t1/2, i.v. [2]: 6.36 ± 0.341 min | concentration at 5 min (male, ICR, mouse, plasma, iv, 2 mg/kg, IV 2 mg/kg, 5 min (5 min), mouse plasma, individual mice 1#-3#, read-out: Plasma concentration (Calculated Concentration)): 292 ng/mL | concentration at 5 min (male, ICR, mouse, plasma, iv, 2 mg/kg, IV 2 mg/kg, 5 min, individual mice, read-out: plasma concentration): 233 ng/mL | concentration at 5 min (male, ICR, mouse, plasma, iv, 2 mg/kg, IV 2 mg/kg, 5 min, mean of mice 1#-3#, read-out: Plasma concentration, Mean): 237 ng/mL | concentration at 0.5 h (male, ICR, mouse, plasma, iv, 2 mg/kg, IV 2 mg/kg, 0.5 h (30 min), mouse plasma, individual mice 1#-3#, read-out: Plasma concentration (Calculated Concentration)): 18.4 ng/mL | concentration at 0.5 h (male, ICR, mouse, plasma, iv, 2 mg/kg, IV 2 mg/kg, 0.5 h, individual mice, read-out: plasma concentration): 16.1 ng/mL | concentration at 0.5 h (male, ICR, mouse, plasma, iv, 2 mg/kg, IV 2 mg/kg, 0.50 h, mean of mice 1#-3#, read-out: Plasma concentration, Mean): 14.9 ng/mL | concentration at […] (male, ICR, mouse, plasma, iv, 2 mg/kg, IV 2 mg/kg, […] (15 min), mouse plasma, individual mice 1#-3#, read-out: Plasma concentration (Calculated Concentration)): 55.3 ng/mL | AUC(0-t) (male, ICR, mouse, plasma, iv, 2 mg/kg, IV 2 mg/kg, individual mice 1#-3#, read-out: AUC0-t): 78.3 ng·h/mL | AUC(0-inf) (male, ICR, mouse, plasma, iv, 2 mg/kg, IV 2 mg/kg, individual mice 1#-3#, read-out: AUC0-∞): 81.1 ng·h/mL | C0 (male, ICR, mouse, plasma, iv, 2 mg/kg, IV 2 mg/kg, individual mice 1#-3#): 671 ng/mL | clearance (male, ICR, mouse, plasma, iv, 2 mg/kg, IV 2 mg/kg, individual mice 1#-3#, read-out: Cl (converted)): 411 mL/min/kg | Cmax (male, ICR, mouse, plasma, iv, 2 mg/kg, IV 2 mg/kg, individual mice 1#-3#, read-out: Cmax): 292 ng/mL | MRT last (male, ICR, mouse, plasma, iv, 2 mg/kg, IV 2 mg/kg, individual mice 1#-3#, read-out: MRT0-t): 5.42 min | MRT inf (male, ICR, mouse, plasma, iv, 2 mg/kg, IV 2 mg/kg, individual mice 1#-3#, read-out: MRT0-∞): 6.6 min | half-life (male, ICR, mouse, plasma, iv, 2 mg/kg, IV 2 mg/kg, individual mice 1#-3#, read-out: T1/2 (converted)): 6.42 min | Tmax (male, ICR, mouse, plasma, iv, 2 mg/kg, IV 2 mg/kg, individual mice 1#-3#, read-out: Tmax): 5 min | Vd (male, ICR, mouse, plasma, iv, 2 mg/kg, IV 2 mg/kg, individual mice 1#-3#, read-out: Vz): 3.82 L/kg | AUC(0-inf) (male, ICR, mouse, plasma, iv, 2 mg/kg, IV 2 mg/kg, individual mice 1-3, read-out: AUCINF_obs): 81.1 ng·h/mL | AUC(0-inf) (male, ICR, mouse, plasma, iv, 2 mg/kg, IV 2 mg/kg, individual mice 1-3, read-out: AUCINF_pred): 80.7 ng·h/mL | AUC (male, ICR, mouse, plasma, iv, 2 mg/kg, IV 2 mg/kg, individual mice 1-3, read-out: AUCall): 78.3 ng·h/mL | AUC(0-t) (male, ICR, mouse, plasma, iv, 2 mg/kg, IV 2 mg/kg, individual mice 1-3, read-out: AUClast): 78.3 ng·h/mL | C0 (male, ICR, mouse, plasma, iv, 2 mg/kg, IV 2 mg/kg, individual mice 1-3): 671 ng/mL | clearance (male, ICR, mouse, plasma, iv, 2 mg/kg, IV 2 mg/kg, individual mice 1-3, read-out: Cl_obs (converted)): 411 mL/min/kg | concentration at 0.5 h (male, ICR, mouse, plasma, iv, 2 mg/kg, IV 2 mg/kg, individual mice 1-3, read-out: Clast): 18.4 ng/mL | Cmax (male, ICR, mouse, plasma, iv, 2 mg/kg, IV 2 mg/kg, individual mice 1-3, read-out: Cmax): 292 ng/mL | k el (male, ICR, mouse, plasma, iv, 2 mg/kg, IV 2 mg/kg, individual mice 1-3, read-out: Lambda_z (converted)): 0.00179 s⁻¹ | MRT inf (male, ICR, mouse, plasma, iv, 2 mg/kg, IV 2 mg/kg, individual mice 1-3, read-out: MRTINF_obs): 6.61 min | MRT inf (male, ICR, mouse, plasma, iv, 2 mg/kg, IV 2 mg/kg, individual mice 1-3, read-out: MRTINF_pred): 6.45 min | MRT last (male, ICR, mouse, plasma, iv, 2 mg/kg, IV 2 mg/kg, individual mice 1-3, read-out: MRTlast): 5.42 min | Tmax (male, ICR, mouse, plasma, iv, 2 mg/kg, IV 2 mg/kg, individual mice 1-3, read-out: Tmax): 5 min | AUC(0-t) (male, ICR, mouse, plasma, iv, 2 mg/kg, IV 2 mg/kg, mean of mice 1#-3#, read-out: AUC0-t, Mean): 63.6 ng·h/mL | AUC(0-inf) (male, ICR, mouse, plasma, iv, 2 mg/kg, IV 2 mg/kg, mean of mice 1#-3#, read-out: AUC0-∞, Mean): 65.9 ng·h/mL | clearance (male, ICR, mouse, plasma, iv, 2 mg/kg, IV 2 mg/kg, mean of mice 1#-3#, read-out: Cl, Mean (converted)): 524 mL/min/kg | Cmax (male, ICR, mouse, plasma, iv, 2 mg/kg, IV 2 mg/kg, mean of mice 1#-3#, read-out: Cmax, Mean): 237 ng/mL | MRT last (male, ICR, mouse, plasma, iv, 2 mg/kg, IV 2 mg/kg, mean of mice 1#-3#, read-out: MRT0-t, Mean): 5.81 min | MRT inf (male, ICR, mouse, plasma, iv, 2 mg/kg, IV 2 mg/kg, mean of mice 1#-3#, read-out: MRT0-∞, Mean): 6.96 min | half-life (male, ICR, mouse, plasma, iv, 2 mg/kg, IV 2 mg/kg, mean of mice 1#-3#, read-out: T1/2, Mean (converted)): 6.36 min | Tmax (male, ICR, mouse, plasma, iv, 2 mg/kg, IV 2 mg/kg, mean of mice 1#-3#, read-out: Tmax, Mean): 5 min | Vd (male, ICR, mouse, plasma, iv, 2 mg/kg, IV 2 mg/kg, mean of mice 1#-3#, read-out: Vz, Mean): 4.79 L/kg | AUC (male, ICR, mouse, plasma, iv, 2 mg/kg, i.v. 2 mg kg^−1, male ICR mice, n = 3, read-out: AUC0‐t, i.v.): 63.6 ± 14.2 ng·h/mL
